Results: patent US9518064B2, “Imidazothiadiazole and imidazopyridazine derivatives as protease activated receptor 4 (PAR4) inhibitors for treating platelet aggregation” (BRISTOL-MYERS SQUIBB COMPANY, priority 2012, dated 2016)

Legend:
PAR4 [1] = target: T1, PAR4 (Homo sapiens (Human), UniProt Q96RI0); experiment: FLIPR assay in PAR4-expressing HEK293 cells (calcium mobilization); type: cell-based; conditions: PAR4 antagonist activity, FLIPR assay as described in Example A
PAR4 [2] = target: T1, PAR4; experiment: Gamma thrombin induced platelet aggregation assay (PRP assay); type: cell-based; conditions: γ-thrombin induced platelet aggregation in PRP

T1 sequence (Q96RI0 18-385): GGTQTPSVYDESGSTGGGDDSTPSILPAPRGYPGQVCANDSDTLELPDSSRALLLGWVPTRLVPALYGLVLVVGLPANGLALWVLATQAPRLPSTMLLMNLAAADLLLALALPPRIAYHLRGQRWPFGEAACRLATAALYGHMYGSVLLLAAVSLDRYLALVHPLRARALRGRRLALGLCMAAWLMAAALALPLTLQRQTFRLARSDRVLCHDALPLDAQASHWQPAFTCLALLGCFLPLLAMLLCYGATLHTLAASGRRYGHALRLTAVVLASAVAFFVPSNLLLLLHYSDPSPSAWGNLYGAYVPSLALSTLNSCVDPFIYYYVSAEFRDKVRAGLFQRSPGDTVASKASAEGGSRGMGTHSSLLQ

Structure (SMILES)	IC50 (PAR4 [1]) [nM]	IC50 (PAR4 [2]) [nM]
COc1cc(OCc2cccc(-c3ccc4c(c3)OCO4)c2)c2cc(-c3cn4nc(OC)sc4n3)oc2c1 [Example 18]	3.5	68.2
COc1cc(OCc2cccc(-c3ccc4nccn4c3)c2)c2cc(-c3cn4nc(OC)sc4n3)oc2c1 [Example 23]	–	629
COc1cc(OCc2cccc(-c3ccc([N+](=O)[O-])nc3)c2)c2cc(-c3cn4nc(OC)sc4n3)oc2c1 [Example 28]	–	24.6
COc1cc(OCc2cccc(-c3ccc(C#N)c(F)c3)c2)c2cc(-c3cn4nc(OC)sc4n3)oc2c1 [Example 30]	–	125
COc1cc(OCc2cccc(-c3ccc(F)c(C)n3)c2)c2cc(-c3cn4nc(OC)sc4n3)oc2c1 [Example 32]	0.57	2770
COc1cc(OCc2cccc(-c3cnsc3)c2)c2cc(-c3cn4nc(OC)sc4n3)oc2c1 [Example 48]	1.03	65.9
COc1cc(OCc2cccc(-c3ccc(N4CCOCC4)nc3)c2)c2cc(-c3cn4nc(OC)sc4n3)oc2c1 [Example 59]	4.81	2670
COc1cc(OCc2cccc(-c3ccc(C(=O)OC(C)(C)C)nc3)c2)c2cc(-c3cn4nc(OC)sc4n3)oc2c1 [Example 60]	4.18	81.3
COc1cc(OCc2cccc(-c3ccc(F)cn3)c2)c2cc(-c3cn4nc([C@H](C)F)sc4n3)oc2c1 [Example 69]	–	13.1
COc1cc(COc2cc(OC)cc3oc(-c4cn5nc(OC)sc5n4)cc23)cc(-c2cnc(OC)nc2)c1 [Example 71]	0.5	3.61
COc1cc(OCc2cccc(-c3cnc(OC)nc3)c2)c2cc(-c3cn4nc(C)ccc4n3)oc2c1 [Example 82, 2-(6-Methoxy-4-((3-(2-methoxypyrimidin-5-yl)benzyl)oxy)benzofuran-2-yl)-6-methylimidazo[1,2-b]pyridazine]	1.32	–
COc1cc(OCc2cccc(-c3ccc(C(=O)O)nc3)c2)c2cc(-c3cn4nc(OC)sc4n3)oc2c1 [Example 84, 5-(3-(((6-Methoxy-2-(2-methoxyimidazo[2,1-b][1,3,4]thiadiazol-6-yl)benzofuran-4-yl)oxy)methyl)phenyl)picolinic acid]	65	–
COCCN(C)C(=O)c1ccc(-c2cccc(COc3cc(OC)cc4oc(-c5cn6nc(OC)sc6n5)cc34)c2)cn1 [Example 85, 5-(3-(((6-Methoxy-2-(2-methoxyimidazo[2,1-b][1,3,4]thiadiazol-6-yl)benzofuran-4-yl)oxy)methyl)phenyl)-N-(2-methoxyethyl)-N-methylpicolinamide]	1.49	–
COc1cc(OCc2cccc(-c3ccc(OC4CCCCO4)cn3)c2)c2cc(-c3cn4nc(OC)sc4n3)oc2c1 (stereo not shown) [Example 89]	0.79	–
COc1cc(OCc2cccc(C3=CCOCC3)c2)c2cc(-c3cn4nc(OC)sc4n3)oc2c1 [Example 93]	0.71	105
COc1cc(OCc2cccc(C3CCCCC3)c2)c2cc(-c3cn4nc(OC)sc4n3)oc2c1 [Example 95]	0.69	–
COc1cc(OCc2ccnc(-c3csc(C)n3)n2)c2cc(-c3cn4nc(OC)sc4n3)oc2c1 [Example 102]	0.72	–
COc1cc(OCc2ccnc(C3CC3)n2)c2cc(-c3cn4nc(OC)sc4n3)oc2c1 [Example 103]	1.39	–
COc1cc(OCc2ccnc(C3COc4ccccc4O3)n2)c2cc(-c3cn4nc(OC)sc4n3)oc2c1 (stereo not shown) [Example 104]	0.85	–
COc1cc(OCc2cccc(-c3nc(CO)c(C)s3)c2)c2cc(-c3cn4nc(OC)sc4n3)oc2c1 [Example 106, (2-(3-(((6-Methoxy-2-(2-methoxyimidazo[2,1-b][1,3,4]thiadiazol-6-yl)benzofuran-4-yl)oxy)methyl)phenyl)-5-methylthiazol-4-yl)methanol]	1.59	–
COc1cc(OCc2cccc(C3(O)CCOCC3)n2)c2cc(-c3cn4nc(OC)sc4n3)oc2c1 [Example 109, 4-(6-(((6-Methoxy-2-(2-methoxyimidazo[2,1-b][1,3,4]thiadiazol-6-yl)benzofuran-4-yl)oxy)methyl)pyridin-2-yl)tetrahydro-2H-pyran-4-ol]	0.45	–
COc1cc(OCc2cccc(C3(OC)CCOCC3)n2)c2cc(-c3cn4nc(OC)sc4n3)oc2c1 [Example 111, 2-Methoxy-6-(6-methoxy-4-((6-(4-methoxytetrahydro-2H-pyran-4-yl)pyridin-2-yl)methoxy)benzofuran-2-yl)imidazo[2,1-b][1,3,4]thiadiazole]	0.23	–
COc1cc(OCc2cccc(C3(OC)CCOCC3)n2)c2cc(-c3cn4nc([C@H](C)F)sc4n3)oc2c1 [Example 112, (S)-2-(1-Fluoroethyl)-6-(6-methoxy-4-((6-(4-methoxytetrahydro-2H-pyran-4-yl)pyridin-2-yl)methoxy)benzofuran-2-yl)imidazo[2,1-b][1,3,4]thiadiazole]	0.36	–
COc1cc(OCc2cccc(C3(F)CCOCC3)n2)c2cc(-c3cn4nc([C@H](C)F)sc4n3)oc2c1 [Example 114, (S)-2-(1-Fluoroethyl)-6-(4-((6-(4-fluorotetrahydro-2H-pyran-4-yl)pyridin-2-yl)methoxy)-6-methoxybenzo-furan-2-yl)imidazo[2,1-b][1,3,4]thiadiazole]	0.31	–

Second part, the compound after the results:

IC50 (PAR4 [1]) [nM]	IC50 (PAR4 [2]) [nM]	Structure (SMILES)
–	970	COc1cc(OCc2cccc(-c3cccnc3C#N)c2)c2cc(-c3cn4nc(OC)sc4n3)oc2c1 [Example 26]
–	49.9	COc1cc(OCc2cccc(-c3ccc4c(c3)OCCO4)c2)c2cc(-c3cn4nc(OC)sc4n3)oc2c1 [Example 31]
4.04	2430	COc1cc(OCc2cccc(-c3cncnc3)c2)c2cc(-c3cn4nc(C(C)(F)F)sc4n3)oc2c1 [Example 63, 2-(1,1-Difluoroethyl)-6-(6-methoxy-4-((3-(pyrimidin-5-yl)benzyl)oxy)benzofuran-2-yl)imidazo[2,1-b][1,3,4]thiadiazole]
–	490	COc1cc(OCc2cccc(-c3cncnc3)c2)c2cc(-c3cn4nc([C@H](C)F)sc4n3)oc2c1 [Example 64, (S)-2-(1-Fluoroethyl)-6-(6-methoxy-4-((3-(pyrimidin-5-yl)benzyl)oxy)benzofuran-2-yl)imidazo[2,1-b][1,3,4]thiadiazole]
3.37	2230	COc1cc(OCc2cccc(-c3ccc(F)nc3)c2)c2cc(-c3cn4nc(C(C)(F)F)sc4n3)oc2c1 [Example 68]
3130	–	CSc1nn2cc(-c3nc4c(OCc5ccccc5-c5ccccc5)cccc4o3)nc2s1 [Example 80]
22.1	5000	COc1nn2cc(-c3nc4c(OCc5cccc(-c6ccoc6)c5)cccc4o3)nc2s1 [Example 81, 4-((3-(Furan-3-yl)benzyl)oxy)-2-(2-methoxyimidazo[2,1-b][1,3,4]thiadiazol-6-yl)benzo[d]oxazole]
0.39	–	COc1cc(OCc2cc(F)cc(-c3cnc(OC)nc3)c2)c2cc(-c3cn4nc(OC)sc4n3)oc2c1 [Example 83, 6-(4-((3-Fluoro-5-(2-methoxypyrimidin-5-yl)benzyl)oxy)-6-methoxybenzofuran-2-yl)-2-methoxyimidazo[2,1-b][1,3,4]thiadiazole]
0.56	–	COc1cc(OCc2cccc(-c3ccc(C(C)OC4CCCCO4)cn3)c2)c2cc(-c3cn4nc(OC)sc4n3)oc2c1 (stereo not shown) [Example 86, 2-Methoxy-6-(6-methoxy-4-((3-(5-(1-((tetrahydro-2H-pyran-2-yl)oxy)ethyl)pyridin-2-yl)benzyl)oxy)benzofuran-2-yl)imidazo[2,1-b][1,3,4]thiadiazole]
1.11	–	COc1cc(OCc2cccc(-c3ccc(C(C)O)cn3)c2)c2cc(-c3cn4nc(OC)sc4n3)oc2c1 (stereo not shown) [Example 87, 1-(6-(3-(((6-Methoxy-2-(2-methoxyimidazo[2,1-b][1,3,4]thiadiazol-6-yl)benzofuran-4-yl)oxy)methyl)phenyl)pyridin-3-yl)ethanol]
1.1	–	COc1cc(OCc2cccc(-c3ccc(OC4CCCCO4)cc3)c2)c2cc(-c3cn4nc(OC)sc4n3)oc2c1 (stereo not shown) [Example 88]
4.91	–	COc1cc(OCc2cccc(-c3ccc(O)cc3)c2)c2cc(-c3cn4nc(OC)sc4n3)oc2c1 [Example 90]
9.05	–	COc1cc(OCc2cccc(-c3ccc(O)cn3)c2)c2cc(-c3cn4nc(OC)sc4n3)oc2c1 [Example 91]
0.72	–	COc1cc(OCc2cccc(C3CCOCC3)c2)c2cc(-c3cn4nc(OC)sc4n3)oc2c1 [Example 92, 2-Methoxy-6-(6-methoxy-4-((3-(tetrahydro-2H-pyran-4-yl)benzyl)oxy)benzofuran-2-yl)imidazo[2,1-b][1,3,4]thiadiazole]
2.21	–	COc1cc(OCc2cccc(C3=CCCCC3)c2)c2cc(-c3cn4nc(OC)sc4n3)oc2c1 [Example 94]
0.23	–	COc1cc(OCc2cccc(-c3ccc(C(=O)N(C)C)cc3)n2)c2cc(-c3cn4nc(OC)sc4n3)oc2c1 [Example 96, 4-(6-(((6-Methoxy-2-(2-methoxyimidazo[2,1-b][1,3,4]thiadiazol-6-yl)benzofuran-4-yl)oxy)methyl)pyridin-2-yl)-N,N-dimethylbenzamide]
48.7	–	COc1cc(OCc2ccnc(-c3cccc(C#N)c3)n2)c2cc(-c3cn4nc(OC)sc4n3)oc2c1 [Example 99]
1.06	–	COc1cc(OCc2ccnc(C3(c4ccccc4)CC3)n2)c2cc(-c3cn4nc(OC)sc4n3)oc2c1 [Example 105]
1.09	–	COc1ncc(-c2cccc(COc3cc(Cl)cc4oc(-c5cn6nc(OC)sc6n5)cc34)c2)cn1 [Example 107, 6-(6-Chloro-4-((3-(2-methoxypyrimidin-5-yl)benzyl)oxy)benzofuran-2-yl)-2-methoxyimidazo[2,1-b][1,3,4]thiadiazole]
1.43	–	COc1cnc(-c2cccc(COc3cc(Cl)cc4oc(-c5cn6nc(OC)sc6n5)cc34)c2)cn1 [Example 108, 6-(6-Chloro-4-((3-(5-methoxypyrazin-2-yl)benzyl)oxy)benzofuran-2-yl)-2-methoxyimidazo[2,1-b][1,3,4]thiadiazole]
0.35	–	COc1cc(OCc2cccc(C3(F)CCOCC3)n2)c2cc(-c3cn4nc(OC)sc4n3)oc2c1 [Example 113, 6-(4-((6-(4-Fluorotetrahydro-2H-pyran-4-yl)pyridin-2-yl)methoxy)-6-methoxybenzofuran-2-yl)-2-methoxyimidazo[2,1-b][1,3,4]thiadiazole]
